Experimental data taken from paper PMC6268991, “Impact of Halogen Substituents on Interactions between 2-Phenyl-2,3-dihydroqulinazolin-4(1H)-one Derivatives and Human Serum Albumin” (Molecules, 2012).

Biological target: T1, human serum albumin (HSA) (Homo sapiens, UniProt P02768)
T1 construct: gene ALB
Assay: intrinsic fluorescence quenching, modified Stern-Volmer
Assay type: binding
Conditions: 298 K, pH 7.4, 0.1 M Tris, 0.1 M NaCl, 1 µM HSA, ex 280 / em 337 nm; site II (subdomain IIIA), no site marker
From the text: intrinsic fluorescence quenching, modified Stern-Volmer on human serum albumin (HSA)

T1 sequence (P02768 25-609): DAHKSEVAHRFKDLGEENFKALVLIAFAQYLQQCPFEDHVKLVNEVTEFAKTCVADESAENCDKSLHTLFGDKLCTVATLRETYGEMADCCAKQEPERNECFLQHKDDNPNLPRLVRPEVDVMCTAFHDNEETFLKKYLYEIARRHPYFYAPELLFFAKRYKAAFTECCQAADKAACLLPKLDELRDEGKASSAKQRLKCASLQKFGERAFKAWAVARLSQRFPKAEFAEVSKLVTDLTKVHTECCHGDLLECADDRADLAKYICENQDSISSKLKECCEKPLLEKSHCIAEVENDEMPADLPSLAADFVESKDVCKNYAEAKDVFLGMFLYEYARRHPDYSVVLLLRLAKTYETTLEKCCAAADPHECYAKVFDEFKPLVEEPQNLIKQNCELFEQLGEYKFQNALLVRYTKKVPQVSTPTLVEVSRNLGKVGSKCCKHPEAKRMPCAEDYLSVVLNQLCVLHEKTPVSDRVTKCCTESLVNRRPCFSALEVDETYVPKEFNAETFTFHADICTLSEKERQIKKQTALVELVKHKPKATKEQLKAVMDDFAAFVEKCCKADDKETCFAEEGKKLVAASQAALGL

CC(C)(C)CC(=O)N1c2ccc(Cl)cc2C(=O)N(N=Cc2ccc(I)cc2)C1c1ccc(I)cc1 (centres unmarked) [3e, 3-(4-Iodobenzylideneamino)-6-chloro-1-(3,3-dimethylbutanoyl)-2-(4-iodophenyl)-2,3-dihydroquinazolin-4(1H)-one]
Ka (×10^4 M^-1): 7.21 ×10^4 M^−1

CC(C)(C)CC(=O)N1c2ccc(Cl)cc2C(=O)N(N=Cc2ccc(Br)cc2)C1c1ccc(Br)cc1 (centres unmarked) [3d, 3-(4-Bromobenzylideneamino)-6-chloro-1-(3,3-dimethylbutanoyl)-2-(4-bromophenyl)-2,3-dihydroquinazolin-4(1H)-one]
Ka (×10^4 M^-1): 4.37 ×10^4 M^−1

CC(C)(C)CC(=O)N1c2ccc(Cl)cc2C(=O)N(N=Cc2ccc(Cl)cc2)C1c1ccc(Cl)cc1 (centres unmarked) [3c, 3-(4-Chlorobenzylideneamino)-6-chloro-1-(3,3-dimethylbutanoyl)-2-(4-chlorophenyl)-2,3-dihydroquinazolin-4(1H)-one]
Ka (×10^4 M^-1): 3.44 ×10^4 M^−1

CC(C)(C)CC(=O)N1c2ccc(Cl)cc2C(=O)N(N=Cc2ccc(F)cc2)C1c1ccc(F)cc1 (centres unmarked) [3b, 3-(4-Fluorobenzylideneamino)-6-chloro-1-(3,3-dimethylbutanoyl)-2-(4-fluorophenyl)-2,3-dihydroquinazolin-4 (1H)-one]
Ka (×10^4 M^-1): 2.64 ×10^4 M^−1

CC(C)(C)CC(=O)N1c2ccc(Cl)cc2C(=O)N(N=Cc2ccccc2)C1c1ccccc1 (centres unmarked) [3a, 3-(Benzylideneamino)-6-chloro-1-(3,3-dimethylbutanoyl)-2-phenyl-2,3-dihydroquinazolin-4(1H)-one]
Ka (×10^4 M^-1): 2.16 ×10^4 M^−1
